Assay results taken from US20100099759A1, “AGRICULTURAL APPLICATIONS OF SILVER […]” (priority 2008, published 2010).
Where two headings read alike, the source gives them in different places.

Tested on: Phakopsora pachyrhizi spores
Description: The leaves were examined with a stereoscope in order to identify those with a high degree of sporulation. Leaves were cut in standard size pieces.
Three different concentrations of SDC in distilled water were prepared having 5 ppm, 10 ppm and 15 ppm of silver, respectively. Ten ml of each solution was placed in separate test tubes. Ten selected pieces of soybean leaves were place in each test tube and stirred to suspend the spores present in the rust spots. The same procedure was used for a control, omitting the SDC in the solution. The leaves were left in the solution for two hours. For each of the product dilutions, ten Petri dishes containing water-agar substrate were inoculated with 100 spores each and maintained for 6 hours in the dark. Lactophenol dye was used to stain the mycelium growth, which was evaluated visually be microscope.
A second experiment was performed using the protocol above, with the following additions. Duplicate solutions were made using Well Water from Parana State, Southern Brazil (WW) and Product Water from Reverse Osmosis (PW). The surfactant sodium lauryl sulphate was added to each solution to a concentration of 0.01% w/w. Again, duplicate Petri dishes were inoculated with 100 spores for each concentration of SDC in the two water types and for […] the control.

**Q.** Which “germination of spores from soybean leaves (summary in words)” value (5, 10 and 15 ppm silver in distilled water, well water and product water from reverse osmosis, with or without surfactant) does the source give for `O=C(O)CC(O)(CC(=O)O)C(=O)[O-].[Ag+]` [SDC, silver dihydrogen citrate] here?
**A.** The value was “almost totally inhibited”.

**Q.** And the “% Germination” value (first experiment, 5 ppm silver in distilled water, 2 h in solution, 6 h in the dark, control 16)?
**A.** Its value is 5.0%.

**Q.** And the “% Germination” value (first experiment, 10 ppm silver in distilled water, 2 h in solution, 6 h in the dark, control 16)?
**A.** The value was 4.0%.

**Q.** And the “% Germination” value (first experiment, 15 ppm silver in distilled water, 2 h in solution, 6 h in the dark, control 16)?
**A.** The value was 5.0%.

**Q.** What about the “% Germination” value (second experiment, 5 ppm, Product Water from Reverse Osmosis (PW), 0.01% w/w sodium lauryl sulphate, control 40) of the same molecule?
**A.** The value was 1.6%.

**Q.** And the “% Germination” value (second experiment, 5 ppm, Well Water (WW), 0.01% w/w sodium lauryl sulphate, control 40)?
**A.** The value was 1.1%.

**Q.** What about the “% Germination” value (second experiment, 10 ppm, Product Water from Reverse Osmosis (PW), 0.01% w/w sodium lauryl sulphate, control 40) of the same molecule?
**A.** The value was 0.4%.

**Q.** And the “% Germination” value (second experiment, 10 ppm, Well Water (WW), 0.01% w/w sodium lauryl sulphate, control 40)?
**A.** Its value is 0.5%.

**Q.** And the “% Germination” value (second experiment, 15 ppm, Product Water from Reverse Osmosis (PW), 0.01% w/w sodium lauryl sulphate, control 40)?
**A.** The value was 0.5%.

**Q.** What about the “% Germination” value (second experiment, 15 ppm, Well Water (WW), 0.01% w/w sodium lauryl sulphate, control 40) of the same molecule?
**A.** The value was 0.2%.
